Measurements from publication PMC10482825 (Scientific Reports, 2023).
Where “and” joins values, the source holds several entries; their conditions need not be identical. Identical values can stand only once. Where a SMILES comes first, the peptide text is derived from it.

What was measured:
[1] = test system: S. enterica mature biofilm; assay: Antibiofilm microtiter plate assay (mature biofilm, crystal violet); type: cell-based, Salmonella enterica (ATCC, 14028); conditions: for Minimal biofilm eradication concentration (MBEC) S. enterica: tested 12.5-200 µM
Protocol: The antibiofilm activities of the selected cryptides against S. enterica and MRSA mature biofilms were examined by microtiter plate assay as previously described, with slight modification. During the mid-logarithmic phase, S. enterica and MRSA were suspended at the density of 1.7 × 10^8 CFU/ml in MHB. Then 100 µl of each bacterial suspension was dispensed into a vinyl 96 U-shaped-well plate and incubated overnight at 37 °C. The mature biofilms were washed with 10 mM Tris–HCl containing 5 mM D-glucose at pH 7.4 and treated for 8 h with 100 µl of two-fold serially diluted cryptides, under the same incubation conditions. A sterile MHB medium was used as the positive control while an equivalent volume of acidified water was used to treat the negative controls. The treated biofilms were washed twice with the same washing buffer and stained with 0.1% crystal violet for 15 min followed by rinsing with sterile distilled water twice and then dried for 30 min at 37 °C. The stain was dissolved with 33% acetic acid and transferred to an optically clear 96-well flat bottom plate which was then measured at 600 nm.
Table S.4 Antibiofilm activities of the selected Cryptides against S. enterica and MRSA. Microbial cells were suspended at 1.7 X 10^8 CFU/ml density, during the mid-logarithmic phase in MHB. Then, 96 U-shaped -well plates were inoculated with 100 µl of microbial suspension and incubated for 48 h at 37 °C. The formed biofilms were washed with 10 mM Tris-HCl and treated with 100 µl of different concentrations of each peptide for 24 h. The treated biomasses were washed and fixed with methanol for 15 min at -20 °C before staining with 0.1 % crystal violet. The stained biofilms were dissolved in 100 µl of 33 % acetic acid and the quantities of crystal violet stains were determined by measuring absorbance at 600 nm as an indicator of the remaining biomass after treatment. Untreated cells were used as negative control [indicating 100 % biofilm integrity] while the sterile medium was used as a positive control [indicating 0 % biofilm integrity].
S. enterica MRSA S. enterica MRSA S. enterica MRSA S. enterica MRSA S. enterica MRSA

HEK-293 = assay: MTT cytotoxicity on normal cells; type: cell-based, human; conditions: 25 µM (highest tested concentration), 24 h, serum-free medium
Protocol: The used mammalian cell lines in our study were colorectal adenocarcinoma (Caco2, ATCC-HTB-37), colorectal carcinoma (HCT 116, ATCC-CCL-247), lung carcinoma (A549, ATCC- CCL-185), cervical cancer cells (HeLa, ATCC-CCL-2), neuroblastoma (SH-SY5Y, ATCC- CRL-2266), rhabdomyosarcoma (RD, ATCC- CCL-136) and human embryonic kidney cells (HEK 293, ATCC- CRL-1573). All the cells were maintained into Dulbecco’s Modified Eagle’s Medium (DMEM) supplemented with 10% heat-inactivated fetal bovine serum, 2 mM L-Glutamine, 100 U/ml penicillin–streptomycin (Pen/Strep) at 37 °C in 5% CO2 humidified incubator.
First, the cytotoxic effect of 24 h serum deprivation on all the selected cell lines was evaluated by MTT assay, following standard protocols. Briefly, cells were seeded and maintained at 37 °C and 5% CO2 in 24-well plates until they reached 75–80% confluency (zero time). Following washing twice with 1X PBS, cells were incubated in a serum-free medium for 24 h, under the same incubation conditions. The cell viability percentages were calculated and compared to zero time as 100% viability to nullify any possible effects of serum deprivation. Thence, the cell viability percentage of each cell line in response to 24 h treatment with different concentrations of each cryptide in serum-free medium was calculated. […] All the measured cell viability percentages were normalised against the corresponding negative controls.

human RBCs = assay: Hemolytic assay; type: cell-based; conditions: 2% RBCs in PBS, 2 h, 37 °C, supernatant at 450 nm, 0.1% TritonX-100 = maximum; highest tested concentration 100 µM
Protocol: All methods were carried out in accordance with the Declaration of Helsinki, and the Research Ethics Committee approved all experimental protocols at Sunway University (approval no. PGSUREC2020/005). A human blood sample was collected from a healthy person for this assay upon obtaining informed consent. The fresh blood sample was centrifuged at 3700 g for 5 min at RT. The supernatant (serum) was removed and red blood cells (RBCs) were washed three times with 1X PBS and diluted to a final concentration of 2% (PBS—137 mM NaCl, 2.7 mM KCl, 10 mM Na2HPO4, 1.76 mM KH2PO4). Cells were stored at 4 °C, and used within 5 h.
The hemolytic activities of the identified cryptides were evaluated as previously described. The prepared RBCs were treated with different peptide concentrations for 2 h at 37 °C. The treated RBCs were centrifuged, under the same centrifugation conditions, and the supernatants were transferred to a 96-well plate and measured at 450 nm.

[2] = crystal violet, absorbance 600 nm, mean ± SD

Row | Molecule | Minimal biofilm eradication concentration (MBEC) S. enterica [1] [µM] | Cell death of HEK-293 (HEK-293) | Hemolysis of human RBCs at 100 µM (human RBCs) [%] | Biofilm eradication S. enterica, 12.5 µM [1, 2] [%] | Biofilm eradication S. enterica, 25 µM [1, 2] [%] | Biofilm eradication S. enterica, 50 µM [1, 2] [%] | Biofilm eradication S. enterica, 100 µM [1, 2] [%] | Biofilm eradication S. enterica, 200 µM [1, 2]
1 | CC(C)C[C@H](NC(=O)[C@H](CCCNC(=N)N)NC(=O)[C@H](Cc1c[nH]c2ccccc12)NC(=O)[C@H](CCCNC(=N)N)NC(=O)[C@H](CC(C)C)NC(=O)[C@@H](N)Cc1ccccc1)C(=O)N[C@@H](CCCCN)C(=O)N[C@@H](Cc1ccccc1)C(=O)N[C@@H](CCCCN)C(=O)N[C@@H](CO)C(=O)N[C@@H](CCCCN)C(=O)N[C@H](C(=O)N[C@@H](Cc1c[nH]c2ccccc12)C(=O)N[C@@H](CS)C(=O)N1CCC[C@H]1C(=O)O)C(C)C [AD7] (H-FLRWRLKFKSKVWCP-OH) | 100 | less than 10% | 26.5 |  |  |  |  | 
2 | CSCC[C@H](NC(=O)[C@H](CCCCN)NC(=O)CNC(=O)[C@H](CCCCN)NC(=O)[C@H](Cc1ccc(O)cc1)NC(=O)[C@H](CC(N)=O)NC(=O)[C@H](CC(C)C)NC(=O)[C@H](CCC(N)=O)NC(=O)[C@H](CC(C)C)NC(=O)[C@@H](N)CCCNC(=N)N)C(=O)N[C@@H](Cc1c[nH]c2ccccc12)C(=O)N[C@@H](CS)C(=O)N1CCC[C@H]1C(=O)NCC(=O)N[C@@H](Cc1c[nH]c2ccccc12)C(=O)O [AD11] (H-RLQLNYKGKMWCPGW-OH) | 200 | less than 10% | 20.7 |  |  |  |  | 
3 | RHCLRSKRPPNVCPH [AD4, cationic cryptide from P. vannamei precursor DN34505 (Pl-crustin 2), chemically synthesised] |  | less than 10% |  | 6.16 ± 2.7 | 12.58 ± 1.9 | 30.41 ± 1.9 | 45.13 ± 2 | 80.63 ± 1% and 80.63%
